Patent US20030138374A1, “Image diagnosis probe based on substituted azobenzene or analogue thereof for disease attributable to amyloid accumulation and composition for image diagnosis containing the same” (priority 2000, published 2003)
Counter-ions that a name gives are not always drawn.

Legend:
amyloid β protein = target: T1, amyloid β protein (Homo sapiens, UniProt P05067); test: β structure recognition of amyloid β protein (thioflavin T fluorescence); assay type: binding; details: for β Structure recognition (%) / β structure recognition (%) at 1 µM: test compound 1 μM, thioflavin T 3 μM, average of duplicated experiments; for β structure recognition (%) at 1 µM: read-out: β Structure recognition (%); for β structure recognition (in words): comment on Table I
T1 construct: the amyloid β protein (purchased from Peptide Laboratory) was dissolved in a potassium phosphate buffer (pH7.4); purchased Peptide Laboratory
Method: (1) Method of Quantifying the Amyloid β Protein Having β Sheet Structure—method of Measuring of Recognition of β Structure in a Test Compound
Then, each 100 microliters of thioflavin T (which emits fluorescence depending on an extent of β structure of the amyloid β protein) dissolved in a glycine-NaOH buffer (pH 8.5) was added (final concentration 3 μM), and the fluorescence was immediately measured with a fluorescent microplate reader (manufactured by Molecular Device, Model fmax) at an excitation wavelength of 442 nm and a measurement wavelength of 485 nm. When the fluorescence of thioflavin alone was regarded as A, the fluorescence under the coexistence of the amyloid β protein and thioflavin T was regarded as B, and the fluorescence under the coexistence of the amyloid β protein, thioflavin T and a test compound was regarded as C, the recognition of β structure for the test compound was calculated by the following formula (unless otherwise indicated, the concentration of a test compound was 1 μM):
β structure recognition for test compound (%)={(B−C)/(B−A)}×100

[1] = Distribution coefficient between water/1-octanol; assay type: physicochemical; details: for Distribution coefficient: 1-octanol / phosphate buffer (pH 7.3) or ultra-pure water; for Distribution coefficient (in words): comment on Table I
Method: As an oily phase, 1-octanol was used and, as an aqueous phase, a phosphate buffer (pH 7.3) or ultra-pure water was used. A suitable amount of a test compound was dissolved in an oily phase or an aqueous phase, and both phases were placed in the same test tube, and shaken vigorously at room temperature for 30 minutes. After allowing to stand at room temperature over 1 hour, centrifugation at 2000 rpm for 10 minutes was carried out, followed by further standing at room temperature for 1 hour. The aqueous phase and the oily phase were sampled, respectively, and transferred to a 96-well microplate. By using a microplate reader (manufactured by Molecular Device, Model Spectramax 250), the absorbance was measured at a maximum absorbing wavelength for each test compound, and the concentration of the test compound was calculated from a calibration curve previously obtained. A distribution coefficient was calculated by the following formula. Distribution coefficient for test compound =(concentration of test compound in oily phase)/(concentration of test compound in aqueous phase) As the distribution coefficient becomes larger, it can be said that the blood-brain barrier permeability for the test compound is higher.

T1 sequence (P05067 672-711 limits assumed): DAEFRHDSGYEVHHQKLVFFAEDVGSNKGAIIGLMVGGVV

Row | SMILES | β structure recognition (%) at 1 µM (amyloid β protein) [%] | also measured
1 | CCN(CC)c1ccc(/N=N/c2ccc(Br)cn2)c(O)c1 [BF-020] | – | β Structure recognition (%) (amyloid β protein): 84.4%
2 | CCN(CC)c1ccc(/N=C/c2ccc(N(CC)CC)cc2O)cc1 [BF-021] | – | β Structure recognition (%) (amyloid β protein): 70.8%; Distribution coefficient [1]: 30; Distribution coefficient (in words) [1]: high distribution coefficients
3 | CN(C)c1ccc(/N=C2/C=CC(=O)c3ccccc32)cc1 [BF-022] | 27.8 | –
4 | CN(C)c1ccc(/C=N/c2ccc(O)cc2)cc1 [BF-033] | 7.6 | –
5 | CCOc1ccc(/N=C/c2ccc(N(C)C)cc2)cc1.Cl [BF-034] | – | β Structure recognition (%) (amyloid β protein): 19.7%
6 | CN(C)c1ccc(/C=N/c2ccc(F)cc2)cc1.Cl [BF-035] | – | β Structure recognition (%) (amyloid β protein): 5.6%
7 | CCN(CC)c1ccc(/N=N/c2ccc(N(C)C)cc2)c(NC(N)=O)c1 [BF-055] | 85 | –
8 | CCN(CC)c1ccc(/C=C/c2cccc(/C=C/c3ccc(N(CC)CC)cc3)[n+]2C)cc1 [BF-064] | 78.5 | β structure recognition (in words) (amyloid β protein): highly recognize β structure; Distribution coefficient [1]: 87; Distribution coefficient (in words) [1]: high distribution coefficients
9 | O.O.O.O.O.O=C([O-])c1cc(N=Nc2ccc(-c3ccc(N=Nc4ccc(O)c(C(=O)[O-])c4)cc3)cc2)ccc1O.[Na+].[Na+] [Chrysamine G 2Na.5H2O, reference compound] | – | β Structure recognition (%) (amyloid β protein): 84.5%; Distribution coefficient [1]: 2.7
10 | CN(C)c1ccc(SSc2ccc(N(C)C)cc2)cc1 [Compound N-200] | 21.6 | –
11 | O=C(O)c1cc(/C=C/c2ccc(/C=C/c3ccc(O)c(C(=O)O)c3)cc2)ccc1O [Compound X34, 1,4-bis[2-(3-carboxy-4-hydroxyphenyl)eten-yl]-benzene, reference compound] | 73.9 | Distribution coefficient [1]: 3.4
12 | O=C([O-])c1cc(/C=C/c2ccc(/C=C/c3ccc(O)c(C(=O)[O-])c3)cc2)ccc1O.[Na+].[Na+] [Compound X34.2Na, reference compound] | – | β Structure recognition (%) (amyloid β protein): 74.0%; Distribution coefficient [1]: 2.7
13 | CN(C)c1ccc(/N=N/c2ccc(S(=O)(=O)O)cc2)cc1 [SA-125, Methyl Orange] | 62.2 | Distribution coefficient [1]: 1
14 | CCN(CC)c1ccc(/N=N/c2ccccc2)cc1 [SA-134, 4-(diethylamino) azobenzene] | 65.4 | –
15 | Cc1cc(N(C)C)ccc1/N=N/c1ccccc1 [SA-135, 4-dimethylamino-2-methyl-azobenzene] | 42.8 | –
16 | Nc1ccc(/N=N/c2ccccc2)cc1 [SA-138, 4-phenyl azoaniline HCl salt] | 35.9 | –
17 | Nc1ccc(/N=N/c2ccccc2)cc1 [SA-148, 4-phenyl azoaniline] | – | β Structure recognition (%) (amyloid β protein): 28.0%
18 | CCN(CC)c1ccc(/N=N/c2ccc(S(=O)(=O)O)cc2)cc1 [SA-163, Ethyl Orange Na salt] | 30.7 | –
19 | CC[n+]1c(/C=C/c2ccc(N(C)C)cc2)ccc2ccccc21 [SA-169, Quinaldine Red] | 91.9 | β structure recognition (in words) (amyloid β protein): highly recognize β structure; Distribution coefficient [1]: 18
20 | Nc1ccc(/N=N/c2ccc([N+](=O)[O-])cc2)cc1 [SA-180, Disprese Orange 3] | 58 | –
21 | CN(C)c1ccc(/N=N/c2ccc(S(=O)(=O)Cl)cc2)cc1 [SA-188, 4-(dimethylamino) azobenzene-4′-sulfonylchloride] | 62.7 | –
22 | Nc1ccc(/N=N/c2cccc3ccccc23)c(N)c1 [SA-201, Fat Brown RR] | 73 | –
23 | CC[n+]1ccccc1/C=C/c1ccc(N(C)C)cc1 [SA-212, 2-(4-(dimethylamino)stylyl)-1-ethyl pyridinium iodide] | 46 | –

Row | SMILES | β structure recognition (%) at 1 µM (amyloid β protein) [%] | also measured
24 | CN(C)c1ccc(C=Cc2cccc[n+]2C)cc1.[I-] [SA-213, 2-(4-(dimethylamino)stylyl)-1-methyl pyridinium iodide] | – | β Structure recognition (%) (amyloid β protein): 50.7%
25 | CN(C)c1ccc(N=Nc2ccccn2)cc1 [SA-215, 4-(2-pyridylazo)-N,N-dimethylaniline] | 69.1 | β structure recognition (in words) (amyloid β protein): relatively high recognition of β structure; Distribution coefficient [1]: >100; Distribution coefficient (in words) [1]: highest distribution coefficient
26 | CN(C)c1ccc(/C=C/c2ccc3ccccc3[n+]2C)cc1 [SA-245, 2-(4-(dimethylamino)stylyl)-1-methyl quinolinium iodide] | 86.9 | β structure recognition (in words) (amyloid β protein): highly recognize β structure; Distribution coefficient [1]: 10
27 | CN(C)c1ccc(C=Cc2cccc[n+]2C)cc1.[I-] [SA-247, 2-(4-(dimethylamino)stylyl)-1-metyl pyridinium iodide] | – | β Structure recognition (%) (amyloid β protein): 19.5%
28 | Nc1ccc(SSc2ccc(N)cc2)cc1 [SA-260, 4-aminophenyldisulfide] | 83.1 | β structure recognition (in words) (amyloid β protein): highly recognize β structure
29 | CN(C)c1ccc(/C=C/c2ccccn2)cc1 [SA-271] | 53 | –
30 | Nc1ccc(/C=C/c2ccc(N)cc2)cc1 [SA-324, 4,4′-diaminostylbene (2HCl salt)] | 36 | –
31 | Nc1c(SSc2ccc3ccccc3c2N)ccc2ccccc12 [SA-366, 2,2′-dithiobis(1-naphthylamine)] | 43.3 | –
32 | CN(C)c1ccc(N=Nc2ccc(N)cc2Cl)cc1 [SA-376, Disperse Black 7] | 35.7 | –
33 | CCOc1ccc(/N=C/c2ccc(N(C)C)cc2)cc1 [SA-399, N-(4-(dimethylamino)benzylidene)-p-phenetidine] | 23.1 | –
34 | CN(C)c1ccc(/C=N/c2ccc(F)cc2)cc1 [SA-407, N-(4-(dimethylamino)benzylidene)-4-fluoroaniline] | 6.8 | –
35 | CCc1ccc(/N=C/c2ccc(N(C)C)cc2)cc1 [SA-408, N-(4-(dimethylamino)benzylidene)-4-ethylaniline] | 7.9 | –
36 | COc1cc(N=Nc2ccc(N)cc2)c(C)cc1N [SA-419, 4,4′diamino-5-methoxy-2-methyl azobenze] | 38.4 | –
37 | CCN(CC)c1ccc(N=Nc2ccc(N(C)C)cc2)c(NC(N)=O)c1 [SA-420, 4-(diethylamino)-4′-(dimethylamino)-2-(ureido)azobenzene] | 71.6 | β structure recognition (in words) (amyloid β protein): highly recognize β structure
38 | CCN(CC)c1ccc(/C=C/c2cc[n+](C)cc2)cc1 [SA-445] | 71.2 | –
39 | CN(C)c1ccc(/N=N/c2ccc(NC(=O)CI)cc2)cc1 [SA-446, N-(4-dimethylamino) azobenzene-4′-iodoacetamide] | 52.4 | –
40 | CN(C)c1ccc(/N=N/c2ccc(N)cc2)cc1 [SA-512, N,N-dimethyl-4,4′-azodianiline] | 68.2 | –
41 | CN(C)c1ccc(/N=N/c2ccc(C(=O)O)cc2)cc1 [SA-606] | 53.5 | –
42 | CN(C)c1ccc(/C=N/c2cc3c(ccc4ccccc43)cn2)cc1 [SA-672, benzo(F) isoquinoline-2-yl-(4-dimethylaminobenzylidene)-amine] | 39.3 | –
43 | CCN(CC)c1ccc(/C=N/c2ccccc2)cc1 [SA-757, N-(4-(diethylamino)benzylidene) aniline] | 33.9 | –
44 | CN(C)c1ccc(/N=C/c2ccccc2)cc1 [SA-758, N-benzylidene-N′,N′-dimethylbenzene-1,4-diamine] | 46.5 | –
45 | CN(C)c1ccc(/C=C/c2ccc3ccccc3n2)cc1 [SA-770, 2-(4-(dimethylamino)stylyl) quinoline] | 25.4 | –
